System: KRAS-mutant PDC tumor spheroid with HUVEC/MSC, viability
Test: Anticancer human tumor 327498-153-R-J2-PDC patient-derived uterine carcinosarcoma cell line growth inhibition [KRAS2]
Conditions: for IC50: curve of first compound; for viability, T/C: stronger effect = lower value
Procedure, shortened: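 Combination screen of spheroid viability in tumor-cell co-cultures with endothelial (HUVEC) and mesenchymal stem cell stroma. Each agent was tested in half-log dilutions, topping at clinical Cmax or at 10 microM without a known Cmax.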

[1] = second compound 0.1 µM, first compound 0.0316 µM
[2] = second compound 0.1 µM, first compound 0.1 µM
[3] = second compound 0.1 µM, first compound 0.316 µM
[4] = second compound 0.1 µM, first compound 1 µM
[5] = second compound 0.1 µM, first compound 3.16 µM
[6] = second compound 0.1 µM, first compound 10 µM
[7] = second compound 0.316 µM, first compound 0.0316 µM
[8] = second compound 0.316 µM, first compound 0.1 µM
[9] = second compound 0.316 µM, first compound 0.316 µM
[10] = second compound 0.316 µM, first compound 1 µM
[11] = second compound 0.316 µM, first compound 3.16 µM
[12] = second compound 0.316 µM, first compound 10 µM
[13] = second compound 1 µM, first compound 0.0316 µM
[14] = second compound 1 µM, first compound 0.1 µM
[15] = second compound 1 µM, first compound 0.316 µM
[16] = second compound 1 µM, first compound 1 µM
[17] = second compound 1 µM, first compound 3.16 µM
[18] = second compound 1 µM, first compound 10 µM
[19] = second compound 3.16 µM, first compound 0.0316 µM
[20] = second compound 3.16 µM, first compound 0.1 µM
[21] = second compound 3.16 µM, first compound 0.316 µM
[22] = second compound 3.16 µM, first compound 1 µM
[23] = second compound 3.16 µM, first compound 3.16 µM
[24] = second compound 3.16 µM, first compound 10 µM
[25] = second compound 10 µM, first compound 0.0316 µM
[26] = second compound 10 µM, first compound 0.1 µM
[27] = second compound 10 µM, first compound 0.316 µM
[28] = second compound 10 µM, first compound 1 µM
[29] = second compound 10 µM, first compound 3.16 µM
[30] = second compound 10 µM, first compound 10 µM
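Also: spheroids exposed to agents for seven days before reading.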
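For viability, T/C in this document: 100% = DMSO vehicle wells so lower means fewer viable cells.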

Structure (SMILES)	IC50 (second compound 0.1 µM) [nM]	IC50 (second compound 0.316 µM) [nM]	IC50 (second compound 1 µM) [nM]	IC50 (second compound 3.16 µM) [nM]	IC50 (second compound 10 µM) [nM]	viability, T/C [1] [%]	viability, T/C [2] [%]	viability, T/C [3] [%]	viability, T/C [4] [%]	viability, T/C [5] [%]	viability, T/C [6] [%]	viability, T/C [7] [%]	viability, T/C [8] [%]	viability, T/C [9] [%]	viability, T/C [10] [%]	viability, T/C [11] [%]	viability, T/C [12] [%]	viability, T/C [13] [%]	viability, T/C [14] [%]	viability, T/C [15] [%]	other results
COc1cc(Nc2ncc3c(n2)-c2ccc(Cl)cc2C(c2c(F)cccc2OC)=NC3)ccc1C(=O)O + COc1cc2nc(C)nc(NC(C)c3cc(N)cc(C(F)(F)F)c3)c2cc1OC1CCOC1	< 31.6	< 31.6	< 31.6	< 31.6	< 31.6	17.7	12.6	9.32	9.41	13.8	12.8	16.1	11.8	12.2	9.86	12.5	12.2	13.3	10.3	13.1	viability, T/C [16]: 10.5%; viability, T/C [17]: 11.7%; viability, T/C [18]: 11.5%; viability, T/C [19]: 13.1%; viability, T/C [20]: 10.9%; viability, T/C [21]: 9.78%; viability, T/C [22]: 9.93%; viability, T/C [23]: 10.5%; viability, T/C [24]: 10.5%; viability, T/C [25]: 8.09%; viability, T/C [26]: 8.45%; viability, T/C [27]: 5.81%; viability, T/C [28]: 4.52%; viability, T/C [29]: 8.87%; viability, T/C [30]: 4.93%
COc1cc2nccc(Oc3ccc(NC(=O)C4(C(=O)Nc5ccc(F)cc5)CC4)cc3)c2cc1OC + COc1cc2nc(C)nc(NC(C)c3cc(N)cc(C(F)(F)F)c3)c2cc1OC1CCOC1	689	534	379	385	< 31.6	73.8	82.3	74.6	26.7	0.88	87	68.3	60.8	64.5	28.7	0.85	68.5	62.9	54	53.9	viability, T/C [16]: 22.9%; viability, T/C [17]: 0.96%; viability, T/C [18]: 63.1%; viability, T/C [19]: 62.5%; viability, T/C [20]: 57.3%; viability, T/C [21]: 54.2%; viability, T/C [22]: 22.1%; viability, T/C [23]: 0.52%; viability, T/C [24]: 67.3%; viability, T/C [25]: 50.6%; viability, T/C [26]: 44.8%; viability, T/C [27]: 40.5%; viability, T/C [28]: 12.1%; viability, T/C [29]: 0.37%; viability, T/C [30]: 57.9%

Source: PubChem BioAssay AID1963867 (Molecular Pharmacology Branch, DTP, NCI, 2024)
